Data on 44 compounds can be found in the SangsterLogP compilation.

The structures appear in SMILES notation.

The nature of this data set: method code SF-AS, from DOI: 10.1002/ps.2780410210.
Consider `COc1ccccc1C(=O)N(NC(=O)c1ccccc1)C(C)(C)C`, for which the logP turned out to be 2.04.

As for `Cc1ccc(C(=O)N(NC(=O)c2ccccc2)C(C)(C)C)c(C)c1`, the logP turned out to be 3.18.

On to `CC(C)(C)N(NC(=O)c1ccccc1)C(=O)c1ccccc1I`, for which the logP was found to be 2.83.

`CC(C)(C)N(NC(=O)c1ccccc1)C(=O)c1cccc(C(F)(F)F)c1` yielded a logP of 3.61.

As to `CC(C)(C)N(NC(=O)c1ccccc1)C(=O)c1c(Cl)cccc1Cl`, the lipophilicity (logP) is 2.56.

`CC(C)(C)N(NC(=O)c1ccccc1)C(=O)c1cccc(Br)c1` came in with a logP of 3.49.

For `CC(C)(C)N(NC(=O)c1ccccc1)C(=O)c1c(F)c(F)c(F)c(F)c1F`, the logP is 3.25.

Compound `CC(C)(C)N(NC(=O)c1ccccc1)C(=O)c1ccc(C#N)cc1` came in with a logP of 2.5.

`COc1ccc(C(=O)N(NC(=O)c2ccccc2)C(C)(C)C)cc1` registered a logP of 2.56.

As to `CC(C)(C)N(NC(=O)c1ccccc1)C(=O)c1c(F)cccc1F`, the logP was 2.16.

As to `CC(C)(C)N(NC(=O)c1ccccc1)C(=O)c1cccc(Cl)c1`, the log partition coefficient (logP) was 3.28.

`CC(C)(C)N(NC(=O)c1ccccc1)C(=O)c1ccccc1` displayed a logP of 2.45.

`CC(C)(C)N(NC(=O)c1ccccc1)C(=O)c1ccc([N+](=O)[O-])cc1` had a logP of 2.63.

Take `Cc1cc(C)cc(C(=O)N(NC(=O)c2ccccc2)C(C)(C)C)c1`: the logP came to 3.39.

Take `CC(C)(C)N(NC(=O)c1ccccc1)C(=O)c1cccc(F)c1`: the logP amounted to 2.78.

Compound `CC(C)(C)N(NC(=O)c1ccccc1)C(=O)c1ccccc1C(F)(F)F` displayed a logP of 2.85.

Compound `COc1ccc(C(=O)N(NC(=O)c2ccccc2)C(C)(C)C)cc1OC` gave a logP of 2.09.

Take `CC(C)(C)N(NC(=O)c1ccccc1)C(=O)c1ccc(Br)cc1`: the logP came out at 3.66.

`CC(C)(C)N(NC(=O)c1ccccc1)C(=O)c1cccc(Cl)c1Cl`: the logP amounted to 3.41.

`CC(C)(C)N(NC(=O)c1ccccc1)C(=O)c1cccc([N+](=O)[O-])c1` came in with a logP of 2.73.

`CCc1ccccc1C(=O)N(NC(=O)c1ccccc1)C(C)(C)C` displayed a logP of 2.96.

In the case of `CC(C)(C)N(NC(=O)c1ccccc1)C(=O)c1c(F)cccc1Cl`, the logP was 2.34.

Consider `CC(C)(C)N(NC(=O)c1ccccc1)C(=O)c1ccc(I)cc1`, for which the logP came out at 3.78.

For the compound `CC(C)(C)N(NC(=O)c1ccccc1)C(=O)c1ccccc1[N+](=O)[O-]`, the logP stood at 2.27.

For `COc1cccc(C(=O)N(NC(=O)c2ccccc2)C(C)(C)C)c1`, the logP was found to be 2.56.

As for `CC(C)(C)N(NC(=O)c1ccccc1)C(=O)c1ccc(Cl)c(Cl)c1`, the logP came to 4.25.

The compound `Cc1ccccc1C(=O)N(NC(=O)c1ccccc1)C(C)(C)C` yielded a logP of 2.75.

In turn, `Cc1cccc(C(=O)N(NC(=O)c2ccccc2)C(C)(C)C)c1` yielded a logP of 2.79.

Regarding `CSc1ccccc1C(=O)N(NC(=O)c1ccccc1)C(C)(C)C`, the logP is 2.6.

In the case of `CC(C)(C)N(NC(=O)c1ccccc1)C(=O)c1ccc(C(F)(F)F)cc1`, the logP stood at 3.77.

Take `CC(C)(C)N(NC(=O)c1ccccc1)C(=O)c1ccc(Cl)cc1Cl`: the logP is 3.55.

Take `CC(C)(C)N(NC(=O)c1ccccc1)C(=O)c1cc(Cl)ccc1Cl`: the logP turned out to be 3.36.

In the case of `Cc1c(Cl)cccc1C(=O)N(NC(=O)c1ccccc1)C(C)(C)C`, the logP is 3.57.

Compound `CC(C)(C)N(NC(=O)c1ccccc1)C(=O)c1cc(F)c(F)c(F)c1F` showed a logP of 3.44.

As for `CC(C)(C)N(NC(=O)c1ccccc1)C(=O)c1ccccc1Br`, the logP was determined as 2.69.

`CC(C)(C)N(NC(=O)c1ccccc1)C(=O)c1ccccc1F` showed a logP of 2.38.

On to `Cc1cccc(C(=O)N(NC(=O)c2ccccc2)C(C)(C)C)c1C`, for which the logP was 3.1.

`Cc1ccc(C)c(C(=O)N(NC(=O)c2ccccc2)C(C)(C)C)c1` gave a logP of 3.25.

`CC(C)(C)N(NC(=O)c1ccccc1)C(=O)c1cccc(I)c1` had a log partition coefficient (logP) of 3.72.

Turning to `Cc1ccc(C(=O)N(NC(=O)c2ccccc2)C(C)(C)C)cc1`, the lipophilicity (logP) amounted to 2.99.

Consider `CC(C)(C)N(NC(=O)c1ccccc1)C(=O)c1ccc(F)cc1`, for which the logP turned out to be 2.85.

The compound `CC(C)(C)N(NC(=O)c1ccccc1)C(=O)c1ccc(Cl)cc1` showed a logP of 3.42.

`CC(C)(C)N(NC(=O)c1ccccc1)C(=O)c1cccc(C#N)c1`: the logP was 2.34.

In turn, `Cc1ccc(C(=O)N(NC(=O)c2ccccc2)C(C)(C)C)cc1C` yielded a logP of 3.34.
